Source: patent US8673578B2, “Methods of identifying antagonists of the hTAS2R46 bitter taste receptor” (Deutsches Institut für Ernahrungsforschung Potsdam-Rehbrücke, priority 2009, dated 2014)

Columns and labels:
[1] = target: T1, hTAS2R46 (Homo sapiens, UniProt P59540); experiment: calcium imaging (FLIPR), effect on agonist-dependent hTAS2R activation; assay type: cell-based; conditions: presence of agonist strychnine 3 μM
T1 construct: expressed in transfected cells; host or cells: HEK293T cells stably expressing chimeric Gα16gust44, transient transfection
T1 sequence (P59540 1-309): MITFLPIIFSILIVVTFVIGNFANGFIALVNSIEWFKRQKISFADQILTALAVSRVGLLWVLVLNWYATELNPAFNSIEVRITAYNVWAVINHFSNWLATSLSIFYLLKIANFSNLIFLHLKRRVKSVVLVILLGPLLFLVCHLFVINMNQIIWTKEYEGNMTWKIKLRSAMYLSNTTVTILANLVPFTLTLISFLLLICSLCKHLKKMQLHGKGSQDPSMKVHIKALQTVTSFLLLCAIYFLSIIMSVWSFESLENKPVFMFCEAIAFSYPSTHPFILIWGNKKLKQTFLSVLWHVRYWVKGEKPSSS
Text: (§1) Human TAS2R cDNAs were cloned into pcDNA5/FRT (Invitrogen, San Diego, Calif.). For adequate plasma membrane targeting, receptor cDNA was fused to the aminoterminal sequence of the rat somatostatin type 3 receptor at the aminoterminus of the recombinant protein (Bufe, B., T. Hofmann, et al. (2002) Nat Genet. 32(3): 397-401). For immunological detection, the Herpes simplex Glycoprotein D epitope was supplemented at the carboxyterminus of the recombinant protein (Bufe et al., supra). Receptor constructs were transiently transfected into HEK293T cells stably expressing the chimeric G protein subunit Gα16gust44 (Ueda, T., S. Ugawa, et al. (2003) J Neurosci 23(19): 7376-80) using Lipofectamine 2000 (Invitrogen, San Diego, Calif.) in 96-well plates.
(§2) Calcium Imaging experiments were performed 24 h after transfection using a Fluorometric Imaging Plate Reader (FLIPR, Molecular Devices, Munich, Germany) as previously described (Bufe et al., supra). Taste active compounds were ordered from Sigma (Sigma-Aldrich, Taufkirchen, Germany). Absinthin, 3β hydroxy dihydro costunolide and 3β hydroxy pelenolide were kindly provided by Giovanni Appendino (Novara, Italy). Test substances were directly dissolved in C1 buffer (130 mM NaCl, 10 mM Na-Hepes, 10 mM Glucose, 5 mM KCl, 2 mM CaCl2, pH 7.4) or in DMSO, respectively. DMSO stocks were further diluted in C1 buffer not exceeding a final DMSO concentration of 1% on the cells. For the investigation of antagonistic effects, test substances were premixed. Agonists were applied at concentrations corresponding to EC90, except where indicated otherwise (Table 2). Data were collected from 3 independent experiments performed in quadruplicates and processed with SigmaPlot (SPSS, Chicago, Ill.). Fluorescence signals after application of test substances were corrected for and normalized to background fluorescence (ΔF/F═(F−F0)/F0), and baseline noise was subtracted. Calculation of dose-response curves was done by nonlinear regression using the function f(y)=((a−d)/(1+(x/EC50)^nH)+d).
To test 3β hydroxy dihydro costunolide and 3β hydroxy pelenolide for antagonistic or enhancing effects on hTAS2R activation, transfected cells were stimulated with cognate agonist bitter substances at EC90 concentrations (Table 2) without 3β hydroxy dihydro costunolide and 3β hydroxy pelenolide. The cellular responses after application of the agonist alone were set to 100%, responses obtained after coapplication of agonists and 100 μM 3β hydroxy dihydro costunolide or 100 μM 3β hydroxy pelenolide are shown relative to this value (FIG. 4).
Next we determined concentrations of half-maximal inhibition of TAS2R46. FIG. 5 illustrates the concentration-inhibition curves of TAS2R46 activated by picrotoxinin in the presence of various concentrations of 3β hydroxy dihydro costunolide or 3β hydroxy pelenolide. […] In agreement with the data described above the costunolide analog appears to be more potently inhibiting TAS2R46 than the pelenolide analog. […] As expected 3β hydroxy pelenolide has to be employed at ˜6 fold higher concentrations than 3β hydroxy dihydro costunolide to achieve 50% receptor inhibition.
Next, we established concentration-response curves for strychnine at TAS2R46 in the presence of various concentrations of 3β hydroxy dihydro costunolide.
(§3) Finally, the impact of chemical modifications on the antagonistic properties of 3β hydroxy dihydro costunolide on hTAS2R46-expressing cells was studied. Derivatives of 3β hydroxy dihydro costunolide with site-directed modifications at C3 and C11 were generated (FIG. 7A) These derivatives were tested for activation or inhibition of hTAS2R46-expressing cells in the absence or presence of the agonist strychnine (3 μM) and half-maximum effective concentrations (EC50) or half-maximal inhibitory concentrations were calculated (FIG. 7B).

[2] = target: T1, hTAS2R46; experiment: calcium imaging (FLIPR), activation of hTAS2R-transfected HEK293T-Gα16gust44 cells; assay type: cell-based; conditions: absence of agonist
Text: as §1
as §2, with “f(y)=((a−d)/(1+(x/EC50)^nH)+d). […]” for “f(y)=((a−d)/(1+(x/EC50)^nH)+d).”
as §3

Row | SMILES | action on hTAS2R46-expressing cells (inhibition) [1] | action on hTAS2R46-expressing cells (activation) [2]
1 | C/C1=C\CC(=O)/C(C)=C/[C@H]2OC(=O)[C@@H](C)[C@@H]2CC1 [3keto dihydro costunolide] | antagonists | 
2 | C=C1C(=O)O[C@@H]2/C=C(\C)CC/C=C(\C)CC[C@@H]12 [Costunolide, reference compound] |  | agonist
3 | CC(=O)O[C@H]1C/C=C(\C)CC[C@H]2[C@H](C)C(=O)O[C@@H]2/C=C/1C [3β hydroxy dihydro costunolide acetate] |  | agonists
4 | C/C1=C\[C@H]2OC(=O)[C@@H](C)[C@@H]2CC/C(C)=C/CC1 [dihydro costunolide] |  | no influence on the agonistic properties
